Measured values from ChEMBL document CHEMBL1156589, “2-Arylpyrimidines: novel CRF-1 receptor antagonists” (Bioorg Med Chem Lett, 2008).
Converted amounts (≈) assume the structure as drawn.

Legend:
[1] = target: T1, Corticotropin-releasing factor receptor 1 (Homo sapiens, UniProt P34998); test: biochemical; assay type: cell-based, IMR-32
T1 sequence (P34998 whole entry): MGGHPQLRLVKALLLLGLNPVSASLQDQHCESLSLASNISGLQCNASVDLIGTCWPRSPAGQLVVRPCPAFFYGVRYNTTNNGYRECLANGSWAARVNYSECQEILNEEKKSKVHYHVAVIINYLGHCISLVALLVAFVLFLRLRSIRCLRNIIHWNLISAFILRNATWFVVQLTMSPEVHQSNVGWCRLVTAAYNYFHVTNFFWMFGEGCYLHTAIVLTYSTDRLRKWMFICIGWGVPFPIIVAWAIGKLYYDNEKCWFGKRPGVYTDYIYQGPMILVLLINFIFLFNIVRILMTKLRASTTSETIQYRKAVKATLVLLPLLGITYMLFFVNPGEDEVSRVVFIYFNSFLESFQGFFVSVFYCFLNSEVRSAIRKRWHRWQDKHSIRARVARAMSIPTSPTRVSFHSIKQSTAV
Description: Displacement of [125I]sauvagine from human CRF1 receptor expressed in IMR32 cells

[2] = Tmax in Sprague-Dawley rat at 20 mg/kg, po and 3 mg/kg, iv; assay type: ADME, organism-based; settings: in vivo
[3] = target: T1, Corticotropin-releasing factor receptor 1; test: Antagonist activity at CRF1 receptor expressed in mouse AtT20 cells assessed as inhibition of sauvagine-stimulated cAMP accumulation; assay type: functional, cell-based
[4] = Half life in Sprague-Dawley rat at 20 mg/kg, po and 3 mg/kg, iv; assay type: ADME, organism-based; settings: in vivo
[5] = Oral bioavailability in Sprague-Dawley rat at 20 mg/kg; assay type: ADME, organism-based; settings: in vivo
[6] = Cmax in Sprague-Dawley rat at 20 mg/kg, po and 3 mg/kg, iv; assay type: ADME, organism-based; settings: in vivo
[7] = Clearance in Sprague-Dawley rat at 20 mg/kg, po and 3 mg/kg, iv; assay type: ADME, organism-based; settings: in vivo
[8] = Volume of distribution in Sprague-Dawley rat at 20 mg/kg, po and 3 mg/kg, iv; assay type: ADME, organism-based; settings: in vivo
[9] = Solubility in 0.1 N hydrochloric acid; assay type: physicochemical

Row | Ki [1] [nM] | SMILES | also measured
1 | 3 | CCCCN(CC)c1nc(C)nc2c1c(C)cn2-c1c(C)cc(C)cc1C [CP-154526] | –
2 | 0.2 | CCC(CC)c1cc(C)nn2c(-c3sc(N4CCOCC4)nc3Cl)c(C)nc12 | –
3 | 16 | CCCN(CCC)c1c(C)nc(-c2c(C)cc(C)cc2OC)nc1OCC | –
4 | 76 | CCCc1nc(-c2c(C)cc(C)cc2OC)nc(OC)c1N(CCC)CCC | –
5 | 15 | CCCN(CCC)c1c(C)nc(-c2c(C)cc(C)cc2OC)nc1OC | –
6 | 22 | CCCN(CCC)c1c(CC)nc(-c2c(C)cc(C)cc2OC)nc1OC | –
7 | 354 | CCCN(CCC)c1c(C)nc(-c2c(C)cc(C)cc2C)nc1OC | –
8 | > 10000 | COc1cc(C)cc(C)c1-c1nc(C)c(NCC(C)(C)C)c(OC)n1 | –
9 | > 5000 | CCCN(CCC)c1c(C)nc(-c2c(C)cc(C)cc2OC)nc1OC(C)C | –
10 | > 10000 | CCCNc1c(C)nc(-c2c(C)cc(C)cc2OC)nc1OC | –
11 | 9 | CCC(CC)Oc1c(C)nc(-c2c(OC)cc(Cl)cc2OC)nc1OC | Tmax [2]: 1.8 h; IC50 [3]: 7 nM; half-life [4]: 8.3 h; bioavailability [5]: 6%; Cmax [6]: 194 ng/mL; clearance [7]: 13.6 mL/min/kg; Vd [8]: 14 L/kg; solubility [9]: 28 µg/mL (≈ 73.5 µM)
12 | > 10000 | CCCN(CCC)c1c(C)nc(-c2ccc(Cl)cc2Cl)nc1OC | –
13 | 1610 | CCCN(CCC)c1c(C)nc(-c2c(C)cc(C)cc2OC)nc1OCCO | –
14 | 8 | CCC(CC)Oc1c(C)nc(-c2c(C)cc(C)cc2OC)nc1OC | IC50 [3]: 19 nM
15 | 53 | CCCOc1nc(-c2c(C)cc(C)cc2OC)nc(C)c1N(CCC)CCC | –
16 | 561 | CCCN(CCC)c1cnc(-c2c(C)cc(C)cc2OC)nc1C | –
17 | 1150 | CCCN(CCC)c1c(CC(C)O)nc(-c2c(C)cc(C)cc2OC)nc1OC (stereo not given) | –
18 | 33 | CCCN(CCC)c1c(C)nc(-c2c(C)cc(C)cc2OC)nc1Cl | –
19 | 94 | CCC(CC)Nc1c(C)nc(-c2c(C)cc(C)cc2OC)nc1OC | –
20 | 277 | CCCN(CCC)c1c(C)nc(-c2c(OC)cccc2OC)nc1OC | –
21 | 2 | CCCN(CCC)c1c(C)nc(-c2c(OC)cc(Cl)cc2OC)nc1OC | Tmax [2]: 0.6 h; IC50 [3]: 1 nM; half-life [4]: 2.8 h; bioavailability [5]: 2%; Cmax [6]: 210 ng/mL; clearance [7]: 21 mL/min/kg; Vd [8]: 12 L/kg; solubility [9]: 27 µg/mL (≈ 68.5 µM)
22 | 6 | CCCN(CCC)c1c(C)nc(-c2c(OC)cc(C(F)(F)F)cc2C(F)(F)F)nc1OC | –
23 | – | CCCN(CCC)c1c(C)nc(-c2c(C)cc(C)cc2OC)c2ccccc12 | Tmax [2]: 0.7 h; IC50 [3]: 12 nM; half-life [4]: 5.4 h; bioavailability [5]: 5%; Cmax [6]: 387 ng/mL; clearance [7]: 14.5 mL/min/kg; Vd [8]: 13 L/kg; solubility [9]: < 0.5 µg/mL
24 | 9 | CCC(CC)Oc1c(C)nc(-c2c(OC)cc(C(F)F)cc2OC)nc1OC | –
25 | 507 | CCCN(CCC)c1c(C)nc(-c2ccc(OC)cc2OC)nc1OC | –
26 | 604 | CCCN(CCC)c1c(CC(C)(C)O)nc(-c2c(C)cc(C)cc2OC)nc1OC | –
